What was measured:
Assay in all cases: relative viability (nuclei count vs DMSO), 5 days (fraction); higher = more cells survive
GSK-J4 + Luminespib = compound: CCOC(=O)CCNc1cc(N2CCc3ccccc3CC2)nc(-c2ccccn2)n1 [GSK-J4] + CCNC(=O)c1noc(-c2cc(C(C)C)c(O)cc2O)c1-c1ccc(CN2CCOCC2)cc1 [Luminespib] (partner 0.01 µM)
In short: (§1)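 Lung cancer cell lines were seeded in 1536-well plates and dosed by pin tool the next day, with either a single drug or a fixed anchor-drug dose combined with five library-drug doses (not always all listed) spaced in √10 steps. Five days later, one step fixed the cells and stained their nuclei (final 0.05% Triton X-100, 1% formaldehyde, 1 ug/ml Hoechst), and nuclei were counted on 4× images. Relative viability is the nuclei count in treated wells divided by the count in vehicle wells, and each value is the median of duplicate plates.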

AZ3146 + OSI-027 = compound: CN1CCC(CC1)OC2=CC(=C(C=C2)NC3=NC=C4C(=N3)N(C(=O)N4C)C5CCCC5)OC [AZ3146] + COc1cccc2cc(-c3nc([C@H]4CC[C@H](C(=O)O)CC4)n4ncnc(N)c34)[nH]c12 [OSI-027] (partner 0.5 µM)
In short: as §1

GSK-J4 + Pictilisib = compound: CCOC(=O)CCNc1cc(N2CCc3ccccc3CC2)nc(-c2ccccn2)n1 [GSK-J4] + CS(=O)(=O)N1CCN(Cc2cc3nc(-c4cccc5[nH]ncc45)nc(N4CCOCC4)c3s2)CC1 [Pictilisib] (partner 1 µM)
In short: as §1

AZ3146 + AZD7762 = compound: CN1CCC(CC1)OC2=CC(=C(C=C2)NC3=NC=C4C(=N3)N(C(=O)N4C)C5CCCC5)OC [AZ3146] + NC(=O)Nc1cc(-c2cccc(F)c2)sc1C(=O)N[C@H]1CCCNC1 [AZD7762] (partner 0.2 µM)
In short: as §1

Cell Line	relative viability (GSK-J4 + Luminespib; first compound 0.5 µM)	relative viability (GSK-J4 + Luminespib; first compound 1.581 µM)	relative viability (GSK-J4 + Luminespib; first compound 5 µM)	relative viability (GSK-J4 + Luminespib; first compound 15.81 µM)	relative viability (GSK-J4 + Luminespib; first compound 50 µM)	relative viability (AZ3146 + OSI-027; first compound 0.08 µM)	relative viability (AZ3146 + OSI-027; first compound 0.253 µM)	relative viability (AZ3146 + OSI-027; first compound 0.8 µM)	relative viability (AZ3146 + OSI-027; first compound 2.53 µM)	relative viability (AZ3146 + OSI-027; first compound 8 µM)	relative viability (GSK-J4 + Pictilisib; first compound 0.5 µM)	relative viability (GSK-J4 + Pictilisib; first compound 1.581 µM)	relative viability (GSK-J4 + Pictilisib; first compound 5 µM)	relative viability (GSK-J4 + Pictilisib; first compound 15.81 µM)	relative viability (GSK-J4 + Pictilisib; first compound 50 µM)	relative viability (AZ3146 + AZD7762; first compound 0.08 µM)	relative viability (AZ3146 + AZD7762; first compound 0.253 µM)	relative viability (AZ3146 + AZD7762; first compound 0.8 µM)	relative viability (AZ3146 + AZD7762; first compound 2.53 µM)	relative viability (AZ3146 + AZD7762; first compound 8 µM)
201T	1.05	1.1	1.12	1.02	0.992	0.679	0.567	0.726	0.765	0.685	0.653	0.791	0.726	0.687	0.598	0.534	0.643	0.634	0.553	0.594
A549	–	–	–	–	–	–	–	–	–	–	0.43	–	0.573	0.488	0.332	–	–	–	–	–
A-427	0.866	–	0.64	0.681	0.311	0.431	0.586	0.429	0.574	0.338	0.703	–	0.688	0.613	0.675	0.622	0.665	0.56	0.527	0.508
ABC-1	0.373	0.496	0.594	0.52	0.396	0.466	0.484	0.454	0.614	0.472	0.686	0.591	0.671	0.648	0.436	0.756	0.717	0.829	0.893	1
BEN	0.297	0.373	–	0.289	0.189	–	0.306	0.206	0.285	0.309	0.666	0.471	–	0.539	0.33	–	0.608	0.668	0.589	0.68
CAL-12T	0.83	0.549	0.244	0.205	0.518	0.798	0.652	0.612	0.805	0.655	0.622	0.425	0.626	0.418	0.454	0.656	0.653	0.678	0.604	0.611
COR-L23	0.581	0.647	–	0.68	0.514	0.685	0.766	0.781	0.835	0.769	0.731	0.532	–	0.606	0.566	–	–	–	–	–
COR-L 105	0.624	0.58	0.702	0.633	1.01	0.63	0.653	0.587	0.641	0.404	0.519	0.414	0.375	0.402	0.36	–	–	–	–	–
Calu-6	–	–	–	–	–	–	–	–	–	–	0.825	0.874	0.895	0.88	0.807	–	–	–	–	–
ChaGo-K-1	0.56	0.627	0.594	0.607	0.45	0.572	0.611	0.539	0.581	0.366	0.864	–	0.655	0.82	0.596	0.739	0.91	0.865	0.833	0.733
EBC-1	–	–	–	–	–	–	–	–	–	–	0.376	0.336	0.451	0.416	0.257	–	–	–	–	–
EKVX	0.824	0.725	0.977	0.755	0.811	0.72	0.653	0.629	0.63	0.687	0.343	0.536	0.619	0.424	0.397	0.506	0.773	0.541	0.787	0.824
EMC-BAC-2	1.21	1.09	0.985	1.09	0.676	0.343	0.371	0.418	0.379	0.375	0.627	0.597	0.423	0.598	0.52	0.94	1.09	1.25	0.998	1.07
EPLC-272H	0.263	0.408	0.346	0.203	0.173	–	0.277	0.272	0.309	0.308	0.428	–	0.35	0.275	0.219	0.136	0.199	0.175	0.24	0.237
H3255	0.752	0.726	0.693	0.827	0.683	0.654	0.483	0.594	0.612	0.638	0.415	0.414	0.498	0.412	0.424	0.863	0.837	0.768	0.825	0.841
HARA	0.585	–	–	0.675	0.49	0.31	0.41	0.436	0.582	0.506	0.375	0.443	–	0.524	0.156	0.189	0.416	0.344	0.21	0.169
HCC-15	0.232	–	0.304	0.174	0.268	0.689	0.667	0.481	0.773	0.578	0.743	0.353	0.784	0.666	0.473	1.27	1.1	1.33	1.1	1.16
